# Laboratory results as given in the supplement of paper PMC12076712.
# Key:
# Assay in all cases: pIC50, kinobeads binding competition
# [1] = target: FGFR3 (UniProt P22607); settings: cell material: Lysate mix
# How it was run: (§1)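 To obtain pIC50, fold changes versus vehicle were fitted to logistic dose-response curves (R drc package) across biological duplicates. Protein binding to Kinobeads was quantified by TMT10 LC-MS/MS of digested bead-bound proteins. Treatments used nine concentrations with a top of 30 μM, applied to live Jurkat cells in 1:4 steps for 60 min at 37 °C before lysis, or to Jurkat lysate or a 1:1:1:1 HEK293/K-562/HepG2/placenta lysate mix in 1:5 steps for 60 min at 4 °C.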
# [2] = target: T1, ULK1 (UniProt O75385)
# T1 sequence (whole entry): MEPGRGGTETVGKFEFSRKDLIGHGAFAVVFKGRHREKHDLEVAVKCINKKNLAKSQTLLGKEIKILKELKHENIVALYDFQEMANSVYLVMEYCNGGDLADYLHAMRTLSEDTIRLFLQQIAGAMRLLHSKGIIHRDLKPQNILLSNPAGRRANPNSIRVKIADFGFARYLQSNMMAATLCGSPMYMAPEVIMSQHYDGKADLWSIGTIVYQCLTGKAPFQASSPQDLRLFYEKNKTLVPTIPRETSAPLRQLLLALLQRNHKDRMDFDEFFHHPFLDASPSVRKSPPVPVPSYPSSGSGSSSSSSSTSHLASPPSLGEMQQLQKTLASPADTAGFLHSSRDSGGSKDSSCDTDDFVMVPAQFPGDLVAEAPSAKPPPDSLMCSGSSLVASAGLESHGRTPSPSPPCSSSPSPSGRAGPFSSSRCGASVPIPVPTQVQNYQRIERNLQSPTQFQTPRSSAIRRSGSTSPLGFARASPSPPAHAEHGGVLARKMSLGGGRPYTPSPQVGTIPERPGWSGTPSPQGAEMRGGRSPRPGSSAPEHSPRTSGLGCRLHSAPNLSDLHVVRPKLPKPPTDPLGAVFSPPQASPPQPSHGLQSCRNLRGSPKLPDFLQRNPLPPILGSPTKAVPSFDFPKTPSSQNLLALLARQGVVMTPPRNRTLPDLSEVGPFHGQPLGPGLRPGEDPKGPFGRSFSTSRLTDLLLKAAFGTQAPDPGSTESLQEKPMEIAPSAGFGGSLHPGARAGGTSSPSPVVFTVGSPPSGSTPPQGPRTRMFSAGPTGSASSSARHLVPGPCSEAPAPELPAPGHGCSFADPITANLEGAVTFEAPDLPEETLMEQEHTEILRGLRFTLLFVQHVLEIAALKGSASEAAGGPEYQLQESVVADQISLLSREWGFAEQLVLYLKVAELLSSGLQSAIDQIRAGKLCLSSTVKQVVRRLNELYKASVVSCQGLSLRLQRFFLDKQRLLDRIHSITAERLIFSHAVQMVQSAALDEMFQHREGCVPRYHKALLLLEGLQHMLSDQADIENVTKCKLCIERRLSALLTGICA
# How it was run: as §1
# [3] = target: MAPK14 (UniProt Q16539)
# How it was run: as §1
# [4] = target: T2, ICK (UniProt Q9UPZ9)
# T2 sequence (whole entry): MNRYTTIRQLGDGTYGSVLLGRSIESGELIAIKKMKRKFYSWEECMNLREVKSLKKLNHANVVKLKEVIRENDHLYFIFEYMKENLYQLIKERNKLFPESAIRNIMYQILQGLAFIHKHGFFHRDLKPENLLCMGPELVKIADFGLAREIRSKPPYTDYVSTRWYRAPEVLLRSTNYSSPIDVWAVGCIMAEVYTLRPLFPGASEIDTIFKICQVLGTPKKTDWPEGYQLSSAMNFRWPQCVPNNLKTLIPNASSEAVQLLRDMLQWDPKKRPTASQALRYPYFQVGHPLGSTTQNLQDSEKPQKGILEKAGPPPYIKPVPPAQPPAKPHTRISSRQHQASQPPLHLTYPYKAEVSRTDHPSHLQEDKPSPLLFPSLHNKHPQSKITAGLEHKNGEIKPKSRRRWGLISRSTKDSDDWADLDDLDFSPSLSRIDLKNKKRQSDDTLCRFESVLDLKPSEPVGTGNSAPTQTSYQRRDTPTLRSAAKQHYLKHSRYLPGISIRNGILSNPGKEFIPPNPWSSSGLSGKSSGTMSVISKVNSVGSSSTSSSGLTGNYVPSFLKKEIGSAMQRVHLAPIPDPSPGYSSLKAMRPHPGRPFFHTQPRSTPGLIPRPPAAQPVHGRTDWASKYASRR
# How it was run: as §1
# [5] = target: UniProt P17252
# How it was run: as §1
# [6] = target: T3, NEK9 (UniProt Q8TD19)
# T3 sequence (whole entry): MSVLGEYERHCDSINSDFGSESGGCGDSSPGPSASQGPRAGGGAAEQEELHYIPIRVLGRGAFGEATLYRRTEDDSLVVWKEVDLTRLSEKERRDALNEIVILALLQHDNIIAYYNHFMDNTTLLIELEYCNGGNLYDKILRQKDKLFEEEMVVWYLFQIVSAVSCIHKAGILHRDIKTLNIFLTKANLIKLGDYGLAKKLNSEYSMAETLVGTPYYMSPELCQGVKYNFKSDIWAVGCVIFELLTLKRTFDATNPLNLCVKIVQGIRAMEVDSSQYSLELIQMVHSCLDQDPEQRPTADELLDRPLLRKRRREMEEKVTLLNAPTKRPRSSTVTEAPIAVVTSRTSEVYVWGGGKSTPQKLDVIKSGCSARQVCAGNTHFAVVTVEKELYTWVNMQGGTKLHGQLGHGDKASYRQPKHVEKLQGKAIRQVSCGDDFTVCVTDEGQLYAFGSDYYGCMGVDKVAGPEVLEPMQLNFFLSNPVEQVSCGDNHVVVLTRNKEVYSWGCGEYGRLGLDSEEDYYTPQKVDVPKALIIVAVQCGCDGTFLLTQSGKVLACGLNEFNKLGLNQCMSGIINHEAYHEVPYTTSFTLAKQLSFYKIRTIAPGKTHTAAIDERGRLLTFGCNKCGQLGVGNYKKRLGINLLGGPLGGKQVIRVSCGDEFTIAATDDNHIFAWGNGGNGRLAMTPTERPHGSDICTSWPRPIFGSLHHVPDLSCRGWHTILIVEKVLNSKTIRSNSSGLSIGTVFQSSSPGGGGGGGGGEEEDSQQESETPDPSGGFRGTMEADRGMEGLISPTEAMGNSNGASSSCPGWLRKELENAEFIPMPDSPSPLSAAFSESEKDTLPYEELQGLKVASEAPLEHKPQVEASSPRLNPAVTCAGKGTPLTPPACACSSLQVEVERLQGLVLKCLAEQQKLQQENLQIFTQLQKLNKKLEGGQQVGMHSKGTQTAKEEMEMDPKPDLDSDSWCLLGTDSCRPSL
# How it was run: as §1
# FGFR3, sequence (P22607 whole entry, looked up): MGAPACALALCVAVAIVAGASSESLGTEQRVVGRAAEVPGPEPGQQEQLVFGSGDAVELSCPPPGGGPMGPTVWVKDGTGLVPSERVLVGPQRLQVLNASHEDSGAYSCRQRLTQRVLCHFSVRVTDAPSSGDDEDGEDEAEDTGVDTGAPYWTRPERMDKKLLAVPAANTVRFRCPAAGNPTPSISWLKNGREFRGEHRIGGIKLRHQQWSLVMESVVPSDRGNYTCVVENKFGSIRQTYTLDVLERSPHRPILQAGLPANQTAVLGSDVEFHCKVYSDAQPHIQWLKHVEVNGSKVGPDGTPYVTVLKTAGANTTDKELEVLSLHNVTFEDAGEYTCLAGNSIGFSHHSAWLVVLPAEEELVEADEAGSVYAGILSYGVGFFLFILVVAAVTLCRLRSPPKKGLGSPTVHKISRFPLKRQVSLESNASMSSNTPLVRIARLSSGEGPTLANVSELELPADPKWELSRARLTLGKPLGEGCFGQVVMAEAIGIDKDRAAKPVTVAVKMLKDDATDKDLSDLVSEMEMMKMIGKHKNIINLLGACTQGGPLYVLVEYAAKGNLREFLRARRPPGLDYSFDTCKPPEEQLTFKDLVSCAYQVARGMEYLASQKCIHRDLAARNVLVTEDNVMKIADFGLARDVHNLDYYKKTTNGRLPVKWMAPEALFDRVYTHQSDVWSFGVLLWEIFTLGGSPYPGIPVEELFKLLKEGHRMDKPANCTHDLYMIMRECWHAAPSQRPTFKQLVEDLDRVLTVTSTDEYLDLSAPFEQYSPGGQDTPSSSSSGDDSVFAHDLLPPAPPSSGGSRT
# MAPK14, sequence (Q16539 whole entry): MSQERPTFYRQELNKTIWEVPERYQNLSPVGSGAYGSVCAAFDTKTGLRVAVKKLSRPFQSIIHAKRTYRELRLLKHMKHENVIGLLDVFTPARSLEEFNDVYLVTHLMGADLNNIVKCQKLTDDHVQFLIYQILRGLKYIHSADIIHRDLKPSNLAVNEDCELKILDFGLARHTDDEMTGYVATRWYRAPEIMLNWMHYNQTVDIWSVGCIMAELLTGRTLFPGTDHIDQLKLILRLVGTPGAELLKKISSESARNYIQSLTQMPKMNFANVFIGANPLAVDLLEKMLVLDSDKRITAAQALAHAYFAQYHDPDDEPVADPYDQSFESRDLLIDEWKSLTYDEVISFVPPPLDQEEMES
pIC50 [1],pIC50 ([2]; cell material: Lysate mix),pIC50 ([3]; cell material: Lysate mix),pIC50 ([4]; cell material: Lysate mix),pIC50 ([5]; cell material: Lysate mix),pIC50 ([4]; cell material: Jurkat cells),SMILES,pIC50 ([6]; cell material: Lysate mix),pIC50 ([2]; cell material: Jurkat lysate),pIC50 ([3]; cell material: Jurkat cells),pIC50 ([3]; cell material: Jurkat lysate),pIC50 ([4]; cell material: Jurkat lysate),pIC50 ([5]; cell material: Jurkat lysate),pIC50 ([6]; cell material: Jurkat cells),pIC50 ([6]; cell material: Jurkat lysate),pIC50 ([5]; cell material: Jurkat cells)
< 4.52,< 4.52,< 4.52,< 4.52,< 4.52,–,Cc1cc(Nc2cc(C(=O)NCCNC(=O)OC3CC/C=C/CCC3)nc(N3CCN(Cc4ccc(S(=O)(=O)F)cc4)CC3)n2)n[nH]1 (configuration not stated),5.2,–,–,–,–,–,–,–,–
< 4.52,< 4.52,< 4.52,5.43,< 4.52,–,C#CCNC(=O)c1cc(Nc2cc(C)[nH]n2)nc(N2CCN(Cc3ccc(S(=O)(=O)F)cc3)CC2)n1,6.52,–,–,–,–,–,–,–,–
< 4.52,< 4.52,< 4.52,5.38,< 4.52,6.56,O=C(NCCNC(=O)c1cc(Nc2cc(C3CC3)[nH]n2)nc(N2CCN(Cc3ccc(S(=O)(=O)F)cc3)CC2)n1)OC1CC/C=C/CCC1 (configuration not stated),5.56,< 4.52,< 4.52,< 4.52,5.31,< 4.52,6.9,5.24,–
< 4.52,< 4.52,< 4.52,5.64,< 4.52,–,CCNC(=O)c1cc(Nc2cc(C)[nH]n2)nc(N2CCN(Cc3ccc(S(=O)(=O)F)cc3)CC2)n1,7.27,–,–,–,–,–,–,–,–
5.04,4.9,< 4.52,6.46,5.11,–,CCNC(=O)c1cc(Nc2cc(C3CC3)[nH]n2)nc(N2CCN(Cc3ccc(S(=O)(=O)F)cc3)CC2)n1,7.29,–,–,–,–,–,–,–,–

SMILES,pIC50 [1],pIC50 ([2]; cell material: Lysate mix),pIC50 ([3]; cell material: Lysate mix),pIC50 ([4]; cell material: Lysate mix),pIC50 ([5]; cell material: Lysate mix),pIC50 ([4]; cell material: Jurkat cells),pIC50 ([6]; cell material: Lysate mix),pIC50 ([2]; cell material: Jurkat lysate),pIC50 ([3]; cell material: Jurkat cells),pIC50 ([3]; cell material: Jurkat lysate),pIC50 ([4]; cell material: Jurkat lysate),pIC50 ([5]; cell material: Jurkat lysate),pIC50 ([6]; cell material: Jurkat cells),pIC50 ([6]; cell material: Jurkat lysate),pIC50 ([5]; cell material: Jurkat cells)
C#CCNC(=O)c1cc(Nc2cc(C3CC3)[nH]n2)nc(N2CCN(Cc3ccc(S(=O)(=O)F)cc3)CC2)n1,< 4.52,4.85,< 4.52,6.53,< 4.52,–,7.48,< 4.52,< 4.52,< 4.52,6.22,< 4.52,6.87,6.66,5.48
